Experimental data published in patent US20210163453A1, “DERIVATIVES OF PAPAVERINE THAT ARE EFFECTIVE HYPOXIC TUMOR RADIOSENSITIZERS” (Ohio State Innovation Foundation, priority 2018, published 2021).

How the values were obtained:
MP2 tumors = experiment: ODD-luciferase in vivo oxygen reporter (bioluminescence imaging); set-up: species or system mice; conditions: orthotopic MP2 CMVluc tumors
From the text: FIGS. 14A-14E summarize results obtained using ODD-luciferase as an in vivo oxygen reporter. […] (n=3-4, P<0.05).
Use of ODD-luciferase as an in vivo oxygen reporter. We have fused the oxygen dependent degradation domain (ODD) of the HIF1a protein to the luciferase reporter protein. This fusion protein is expressed in tumor cells and is stable and reports well in hypoxia, but is destroyed by cellular machinery when cells are well oxygenated (FIG. 14A). These cells were used to grow tumors in immune-deficient mice and the animals were exposed either 95% oxygen/5% CO2 (carbogen) or medical air and the tumor bioluminescence imaged by IVIS 30 minutes post injection. Increasing oxygen breathing decreases reporter signal (FIG. 14B). These animals were then treated with either papaverine or vehicle (FIG. 14C) or SMV32 or vehicle (FIG. 14E).

mitochondrial function = conditions: cited from earlier work
[1] = system: model tumors grown in mice; experiment: Tumor growth delay with radiation, model tumors pooled; assay type: in vivo; conditions: papaverine 30-60 minutes prior to radiation
Method: Tumor Growth kinetics. 2×10^6 EO771 or 5×10^6 A549 cells were injected s.c. into the flanks of 6-week old female immunocompetent C57/B6 (EO771) or immunocompromised nu/nu (A549) mice. Caliper measurements of opposing diameter were used to calculate the tumor volumes. Upon reaching […], the tumors were visualized by cone beam CT and treatment plans calculated using SARRP software. X-rays were delivered with a single beam delivering 5 Gy using the Small Animal Research Radiation Platform (SARRP, Xstrahl). Tumor volumes were measured until the post treatment volume increased 3-fold. Error bars represent standard deviation.
Both models of transplanted tumors that were used for the oxygenation experiments of papaverine's effect on radiation response in vivo were investigated. The murine breast cancer line EO771 that is syngeneic with the BL6 strain of mice was used and transplanted it orthotopically into the mammary fat pad of immune-competent mice. Also used was the human A549 lung adenocarcinoma line that was transplanted into the flank of immune-deficient mice. The breast cancers grew to approximately 150 mm^3 and were then randomized to receive either no treatment, a single dose of either 5 Gy, or papaverine at 2 mg/kg followed 30-40 minutes later by 5 Gy. […]

PDE10A = biological target: T1, PDE10A (Homo sapiens, UniProt Q9Y233); experiment: PDE10A enzymatic assay (PDE10A activity assay kit, BPS Bioscience); assay type: biochemical
T1 construct: purchased BPS Bioscience
Method: FIGS. 7A-7D show OCR and cellular toxicity data. […] Bars represent mean OCR and PDE10 inhibitory activities from at least 5 (OCR) or 3 (PDE) replicates. All experiments were repeated at least twice. […] Values are mean+−SEM. […]
The structure activity relationship of PPV relative to two assays was assessed: inhibition of cellular OCR by Seahorse, and inhibition of PDE10A by purified enzyme activity in multiwell plate (PDE10A activity assay kit, BPS Bioscience). […] These lead compounds were synthesized from commercial precursors and purified on silica gel column.

[2] = Cellular toxicity of PPV derivatives by trypan blue; assay type: cell-based; conditions: 10 uM, 72 h
Method: FIGS. 7A-7D show OCR and cellular toxicity data. […]. Bars represent mean OCR and PDE10 inhibitory activities from at least 5 (OCR) or 3 (PDE) replicates. All experiments were repeated at least twice. […] Values are mean+−SEM.
Experimental: Cell lines. All cell lines were purchased from the American Type Culture Collection (ATCC) and grown DMEM (Corning) supplemented with 10% FBS (Seradigm) and 1% Penicillin/Streptomycin (Fisher Bioreagents) at 37° C. in 5% CO2. Cells were treated with inhibitors papaverine hydrochloride (Sigma-Aldrich), rotenone (Sigma-Aldrich), piericidin A (Santa Cruz), capsaicin (Sigma-Aldrich), antimycin A (Sigma-Aldrich) and succinic acid disodium salt (Sigma-Aldrich). Cell viability was assessed by trypan blue exclusion.

T1 sequence (Q9Y233 267-1055): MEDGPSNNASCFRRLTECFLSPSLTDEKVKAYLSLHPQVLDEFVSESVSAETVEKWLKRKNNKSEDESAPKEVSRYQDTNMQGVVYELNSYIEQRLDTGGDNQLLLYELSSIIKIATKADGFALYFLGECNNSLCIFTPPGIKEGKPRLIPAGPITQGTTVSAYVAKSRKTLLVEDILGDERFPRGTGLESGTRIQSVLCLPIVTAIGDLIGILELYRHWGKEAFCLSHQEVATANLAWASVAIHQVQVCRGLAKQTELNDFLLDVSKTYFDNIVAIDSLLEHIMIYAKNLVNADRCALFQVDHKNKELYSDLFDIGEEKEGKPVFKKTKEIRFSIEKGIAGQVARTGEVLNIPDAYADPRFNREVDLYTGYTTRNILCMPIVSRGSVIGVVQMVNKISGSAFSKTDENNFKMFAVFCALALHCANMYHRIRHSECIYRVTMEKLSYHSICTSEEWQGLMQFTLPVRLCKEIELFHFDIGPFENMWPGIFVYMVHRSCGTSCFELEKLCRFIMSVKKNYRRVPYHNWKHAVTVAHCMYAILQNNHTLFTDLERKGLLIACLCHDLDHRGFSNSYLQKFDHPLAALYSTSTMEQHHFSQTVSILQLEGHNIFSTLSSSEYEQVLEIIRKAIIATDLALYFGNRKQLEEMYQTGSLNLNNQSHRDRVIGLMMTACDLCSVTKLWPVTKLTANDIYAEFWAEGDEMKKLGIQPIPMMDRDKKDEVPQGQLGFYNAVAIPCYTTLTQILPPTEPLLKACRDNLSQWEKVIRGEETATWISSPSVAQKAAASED

Structure (SMILES) | CMV luciferase (non-hypoxia responsive) control signal (MP2 tumors) | growth of cells in media containing only galactose (mitochondrial function) | increase of relative growth delay of a single dose of radiation [1] | increase of relative growth delay of a single dose of radiation ([1]; listed as papaverine) | IC20 (PDE10A; PDE10A2 enzymatic assay, n=3 replicates, read-out: PDE IC20 (PDE10A IC20)) [µM] | Inhibitory activity PDE10A % of PPV (PDE10A; PDE10A inhibition at 1 μM, normalized to PPV) | PDE10 activity compared to PPV (PDE10A; compared to PPV) [%] | cellular toxicity in vitro [2]
COc1ccc(Cc2nccc3cc(OC)c(OC)cc23)cc1OC [PPV, papaverine] | did not show any change | slow the growth of cells | 2-4 fold | 1.9-3.9 fold | – | – | – | –
COc1cc2ccnc(Cc3cccc4ccccc34)c2cc1OC [SMV-32] | – | – | – | – | 12 | 38.66 % of PPV | 40 | Neither of these compounds shows cellular toxicity
